In patent US6737383B1, “Herbicidal oxadiazolidines” (priority 1999, dated 2004):

What was measured:
[1] = system: bedstraw; experiment: Test B pre/postemergence bedstraw; assay type: in vivo, Galium aparine
Procedure, shortened: (§1)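 Herbicidal effect was estimated by eye on a ten-point control scale after plants spent twelve to sixteen days in a greenhouse following soil or foliar treatment. Foliar sprays targeted plants at one to four leaves; all doses were formulated in a non-phytotoxic solvent with surfactant.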

[2] = system: blackgrass; experiment: Test B pre/postemergence blackgrass; assay type: in vivo, Alopecurus myosuroides
Procedure, shortened: as §1

[3] = system: surinam grass; experiment: Test B pre/postemergence surinam grass; assay type: in vivo, Brachiaria decumbens
Procedure, shortened: as §1

[4] = system: cocklebur; experiment: Test B pre/postemergence cocklebur; assay type: in vivo, Xanthium strumarium
Procedure, shortened: as §1

[5] = system: corn; experiment: Test B pre/postemergence corn; assay type: in vivo, Zea mays
Procedure, shortened: as §1

[6] = system: crabgrass; experiment: Test B pre/postemergence crabgrass; assay type: in vivo, Digitaria sanguinalis
Procedure, shortened: as §1

[7] = system: giant foxtail; experiment: Test B pre/postemergence giant foxtail; assay type: in vivo, Setaria faberii
Procedure, shortened: as §1

[8] = system: rape; experiment: Test B pre/postemergence rape; assay type: in vivo, Brassica napus; settings: for Plant response rating, Rape: scale of 0 to 10 where 0 is no effect and 10 is complete control
Procedure, shortened: as §1

[9] = system: soybean; experiment: Test B pre/postemergence soybean; assay type: in vivo, Glycine max; settings: for Plant response rating, Soybean: scale of 0 to 10 where 0 is no effect and 10 is complete control
Procedure, shortened: as §1

[10] = system: sugar beet; experiment: Test B pre/postemergence sugar beet; assay type: in vivo, Beta vulgaris; settings: for Plant response rating, Sugarbeets: scale of 0 to 10 where 0 is no effect and 10 is complete control
Procedure, shortened: as §1

[11] = system: velvetleaf; experiment: Test B pre/postemergence velvetleaf; assay type: in vivo, Abutilon theophrasti; settings: for Plant response rating, Velvetleaf: scale of 0 to 10 where 0 is no effect and 10 is complete control
Procedure, shortened: as §1

[12] = system: wheat; experiment: Test B pre/postemergence wheat; assay type: in vivo, Triticum aestivum; settings: for Plant response rating, Wheat: scale of 0 to 10 where 0 is no effect and 10 is complete control
Procedure, shortened: as §1

[13] = system: purple nutsedge; experiment: Test B pre/postemergence purple nutsedge; assay type: in vivo, Cyperus rotundus; settings: for Plant response rating, Nutsedge: scale of 0 to 10 where 0 is no effect and 10 is complete control
Procedure, shortened: as §1

[14] = system: rice; experiment: Test B flood test rice; assay type: in vivo, Oryza sativa
Procedure, shortened: (§2)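 Plants were grown to the 2-leaf stage before treatment with test chemical, then held in a greenhouse for twelve to sixteen days. Injury was visually rated against untreated controls on a 0–10 scale, where 0 is no effect and 10 is complete control.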

[15] = system: smallflower flatsedge; experiment: Test B flood test smallflower flatsedge; assay type: in vivo, Cyperus difformis
Procedure, shortened: as §2

[16] = system: duck salad; experiment: Test B flood test duck salad; assay type: in vivo, Heteranthera limosa
Procedure, shortened: as §2

[17] = system: bamyardgrass; experiment: Test B flood test barnyardgrass; assay type: in vivo, Echinochloa crus-galli
Procedure, shortened: as §2

[18] = Preemergence, Rate 125 g/ha, scale of 0 to 10 where 0 is no effect and 10 is complete control
[19] = Preemergence, Rate 250 g/ha, scale 0 to 10, 0 is no effect, 10 is complete control
[20] = Rate 62 g/ha, Postemergence, scale 0 to 10 (0 no effect, 10 complete control)
[21] = Rate 125 g/ha, Postemergence, scale 0 to 10, 0 is no effect, 10 is complete control
[22] = Postemergence, Rate 250 g/ha, scale 0 to 10
[23] = Postemergence, Rate 500 g/ha, scale of 0 to 10 where 0 is no effect and 10 is complete control
[24] = Preemergence, Rate 62 g/ha, scale of 0 to 10 where 0 is no effect and 10 is complete control
[25] = Preemergence, Rate 500 g/ha, scale 0 to 10, 0 is no effect, 10 is complete control
[26] = Rate 62 g/ha, flood test species, Pre-emergence, visual evaluation after twelve to sixteen days
[27] = Rate 125 g/ha, under heading Pre-emergence, flood test species, visual evaluation after twelve to sixteen days
[28] = Rate 250 g/ha, Pre-emergence (flood test species), scale 0 to 10, 0 is no effect, 10 is complete control
[29] = Rate 500 g/ha, Pre-emergence, flood test species, scale 0 to 10 (0 no effect, 10 complete control)

SMILES: CC(C)N(C(=O)n1oc(=O)n(C(C)C(=O)N(C)C)c1=O)c1ccc(F)cc1 (centres unmarked) [Compound 478]
- Plant response rating, Bedstraw [1, 18]: 8
- Bedstraw plant response rating [1, 19]: 8
- Bedstraw plant response rating [1, 20]: 0
- Bedstraw plant response rating [1, 21]: 0
- Blackgrass plant response rating [2, 22]: 8
- Blackgrass plant response rating [2, 23]: 8
- Plant response rating, Blackgrass [2, 24]: 4
- Plant response rating, Blackgrass [2, 18]: 8
- Blackgrass plant response rating [2, 19]: 10
- Blackgrass plant response rating [2, 25]: 10
- Blackgrass plant response rating [2, 20]: 0
- Blackgrass plant response rating [2, 21]: 2
- B. signalgrass plant response rating ([3]; Postemergence, Rate 250 g/ha, scale 0 to 10, 0 no effect, 10 complete control): 5
- B. signalgrass plant response rating [3, 23]: 8
- Plant response rating, B. signalgrass [3, 24]: 4
- Plant response rating, B. signalgrass [3, 18]: 6
- B. signalgrass plant response rating [3, 19]: 9
- B. signalgrass plant response rating [3, 25]: 10
- B. signalgrass plant response rating [3, 20]: 0
- B. signalgrass plant response rating [3, 21]: 0
- Cocklebur plant response rating [4, 22]: 0
- Cocklebur plant response rating [4, 23]: 0
- Plant response rating, Cocklebur [4, 24]: 0
- Plant response rating, Cocklebur [4, 18]: 0
- Cocklebur plant response rating [4, 19]: 0
- Cocklebur plant response rating [4, 25]: 0
- Cocklebur plant response rating [4, 20]: 0
- Cocklebur plant response rating [4, 21]: 0
- Corn plant response rating [5, 22]: 0
- Corn plant response rating [5, 23]: 2
- Plant response rating, Corn [5, 24]: 0
- Plant response rating, Corn [5, 18]: 0
- Corn plant response rating [5, 19]: 0
- Corn plant response rating [5, 25]: 0
- Corn plant response rating [5, 20]: 0
- Corn plant response rating [5, 21]: 0
- Crabgrass plant response rating [6, 22]: 8
- Crabgrass plant response rating [6, 23]: 9
- Plant response rating, Crabgrass [6, 24]: 8
- Plant response rating, Crabgrass [6, 18]: 9
- Crabgrass plant response rating [6, 19]: 10
- Crabgrass plant response rating [6, 25]: 10
- Crabgrass plant response rating [6, 20]: 2
- Crabgrass plant response rating [6, 21]: 3
- Giant foxtail plant response rating [7, 22]: 8
- Giant foxtail plant response rating [7, 23]: 9
- Plant response rating, Giant foxtail [7, 24]: 9
- Plant response rating, Giant foxtail [7, 18]: 10
- Giant foxtail plant response rating [7, 19]: 10
- Giant foxtail plant response rating [7, 25]: 10
- Giant foxtail plant response rating [7, 20]: 3
- Giant foxtail plant response rating [7, 21]: 6
- Rape plant response rating [8, 22]: 0
- Plant response rating, Rape ([8]; Preemergence, Rate 62 g/ha): 0
- Plant response rating, Rape ([8]; Preemergence, Rate 125 g/ha): 1
- Rape plant response rating [8, 19]: 4
- Rape plant response rating [8, 25]: 6
- Rape plant response rating [8, 20]: 0
- Rape plant response rating [8, 21]: 0
- Soybean plant response rating [9, 22]: 2
- Plant response rating, Soybean ([9]; Preemergence, Rate 62 g/ha): 0
- Plant response rating, Soybean ([9]; Preemergence, Rate 125 g/ha): 0
- Soybean plant response rating [9, 19]: 0
- Soybean plant response rating [9, 25]: 0
- Soybean plant response rating [9, 20]: 2
- Soybean plant response rating [9, 21]: 2
- Sugarbeets plant response rating [10, 22]: 0
- Plant response rating, Sugarbeets ([10]; Preemergence, Rate 62 g/ha): 0
- Plant response rating, Sugarbeets ([10]; Preemergence, Rate 125 g/ha): 0
- Sugarbeets plant response rating [10, 19]: 3
- Sugarbeets plant response rating [10, 25]: 7
- Sugarbeets plant response rating [10, 20]: 0
- Sugarbeets plant response rating [10, 21]: 0
- Velvetleaf plant response rating [11, 22]: 0
- Plant response rating, Velvetleaf ([11]; Preemergence, Rate 62 g/ha): 0
- Plant response rating, Velvetleaf ([11]; Preemergence, Rate 125 g/ha): 1
- Velvetleaf plant response rating [11, 19]: 3
- Velvetleaf plant response rating [11, 25]: 7
- Velvetleaf plant response rating [11, 20]: 0
- Velvetleaf plant response rating [11, 21]: 0
- Wheat plant response rating [12, 22]: 2
- Plant response rating, Wheat ([12]; Preemergence, Rate 62 g/ha): 0
- Plant response rating, Wheat ([12]; Preemergence, Rate 125 g/ha): 0
- Wheat plant response rating [12, 19]: 1
- Wheat plant response rating [12, 25]: 8
- Wheat plant response rating [12, 20]: 0
- Wheat plant response rating [12, 21]: 0
- Nutsedge plant response rating [13, 22]: 0
- Plant response rating, Nutsedge ([13]; Preemergence, Rate 62 g/ha): 0
- Plant response rating, Nutsedge ([13]; Preemergence, Rate 125 g/ha): 0
- Nutsedge plant response rating [13, 19]: 0
- Nutsedge plant response rating [13, 25]: 3
- Nutsedge plant response rating [13, 20]: 0
- Nutsedge plant response rating [13, 21]: 0
- Plant response rating, Rice (0 to 10 scale, 0 is no effect, 10 is complete control) [14, 26]: 0
- Rice plant response rating (0 to 10 scale, 0 is no effect, 10 is complete control) [14, 27]: 0
- Rice plant response rating [14, 28]: 0
- Rice plant response rating [14, 29]: 0
- Plant response rating, S. Flatsedge (0 to 10 scale, 0 is no effect, 10 is complete control) [15, 26]: 0
- S. Flatsedge plant response rating (0 to 10 scale, 0 is no effect, 10 is complete control) [15, 27]: 0
- S. Flatsedge plant response rating [15, 28]: 0
- S. Flatsedge plant response rating [15, 29]: 0
- Plant response rating, Ducksalad (0 to 10 scale, 0 is no effect, 10 is complete control) [16, 26]: 0
- Ducksalad plant response rating (0 to 10 scale, 0 is no effect, 10 is complete control) [16, 27]: 0
- Ducksalad plant response rating [16, 28]: 0
- Ducksalad plant response rating [16, 29]: 0
- Plant response rating, Barnyardgrass (0 to 10 scale, 0 is no effect, 10 is complete control) [17, 26]: 0
- Barnyardgrass plant response rating (0 to 10 scale, 0 is no effect, 10 is complete control) [17, 27]: 0
- Barnyardgrass plant response rating [17, 28]: 0
- Barnyardgrass plant response rating [17, 29]: 0
